# From patent publication US8680052B1, “Methods of treating, reducing the incidence of, and/or preventing ischemic events” (The Medicines Company, priority 2013, dated 2014)
# Where two headings read alike, the source gives them in different places.
# Test system: patients undergoing percutaneous coronary intervention (PCI)
# Conditions: for Mortality/Q-wave MI/IDR / Mortality/Q-wave MI/Stent thrombosis: exploratory; for Angiographic complications (site reported): Abrupt vessel closure / Angiographic complications (site reported): Acute stent thrombosis / Angiographic complications (site reported): Need for urgent CABG / Angiographic complications (site reported): New thrombus or suspected thrombus / Angiographic complications (site reported): Threatened abrupt closure / Angiographic complications (site reported): Unsuccessful procedure: index PCI
# Experimental: The diagnosis of non-ST-segment elevation myocardial infarction required troponin I or T greater than the upper limit of normal within 24 hours of randomization (or if troponin results were unavailable at that time, creatine kinase-myocardial band isoenzyme [CK-MB] greater than the upper limit of normal). The diagnosis of unstable angina required ischemic chest discomfort occurring at rest and lasting ≧10 minutes within the 24 hours prior to randomization and dynamic electrocardiographic changes; age ≧65 years and/or diabetes mellitus were also required.
# The primary efficacy endpoint was the composite of mortality, myocardial infarction, or ischemia-driven revascularization at 48 hours. The primary analysis was performed on a modified intent-to-treat population. Confirmatory analyses were performed on an intent-to-treat population. Secondary endpoints included the individual rates of mortality, myocardial infarction, new Q-wave myocardial infarction, ischemia-driven revascularization, abrupt vessel closure, or stroke at 48 hours. Mortality at 30 days and 1 year was also recorded. The clinical events committee adjudicated myocardial infarction, Q-wave myocardial infarction, ischemia-driven revascularization, stent thromboses, and stroke (ischemic or hemorrhagic). The definition of stent thrombosis was similar to the Academic Research Consortium definition of definite stent thrombosis. After review of the prespecified analyses, two exploratory endpoints less reliant on periprocedural biomarker ascertainment were examined. The exploratory endpoints, which were composed of prespecified and adjudicated endpoints, were the composite of mortality, Q-wave myocardial infarction, or ischemia-driven revascularization and the composite of mortality, Q-wave myocardial infarction, or stent thrombosis. Bleeding and adverse events through 48 hours were compared.
# All efficacy analyses were performed on the modified intent-to-treat population, defined as all randomized patients who received at least one dose of study drug and underwent the index PCI. All safety-related analyses were performed on the safety population, which included all patients who received at least one dose of assigned study drug. Patients in the safety analyses were assigned to a treatment arm based on treatment actually received, not as randomized. Intent-to-treat analyses are also presented for full disclosure of results. All statistical tests were two-tailed using a level of significance of 0.05. […] Logistic regression was also used to analyze the majority of the remaining secondary endpoints.
smiles,measurement,setting,value
"COC(=O)[C@H](c1ccccc1Cl)N1CCc2sccc2C1 [Clopidogrel, clopidogrel, reference compound]",All-cause mortality,"30-day, ITT",47 (1.8) no. (%)
same,IDR,"30-day, ITT",49 (1.8) no. (%)
same,MI,"30-day, ITT",202 (7.6) no. (%)
same,Mortality/MI/IDR,"30-day, ITT",254 (9.6) no. (%)
same,Q-wave MI,"30-day, ITT",15 (0.6) no. (%)
same,Stent thrombosis,"30-day, ITT",29 (1.1) no. (%)
same,Mortality/Q-wave MI/IDR,"30-day, ITT",94 (3.5) no. (%)
same,Mortality/Q-wave MI/Stent thrombosis,"30-day, ITT",77 (2.9) no. (%)
same,All-cause mortality,"30-day, MITT",45 (1.7) no. (%)
same,IDR,"30-day, MITT",46 (1.7) no. (%)
same,MI,"30-day, MITT",201 (7.6) no. (%)
same,Mortality/MI/IDR,"30-day, MITT",249 (9.5) no. (%)
same,Q-wave MI,"30-day, MITT",14 (0.5) no. (%)
same,Stent thrombosis,"30-day, MITT",28 (1.1) no. (%)
same,Mortality/Q-wave MI/IDR,"30-day, MITT",89 (3.4) no. (%)
same,Mortality/Q-wave MI/Stent thrombosis,"30-day, MITT",73 (2.8) no. (%)
same,All-cause mortality,"30-day, Safety population",45 (1.7) no. (%)
same,IDR,"30-day, Safety population",47 (1.8) no. (%)
same,MI,"30-day, Safety population",203 (7.7) no. (%)
same,Mortality/MI/IDR,"30-day, Safety population",251 (9.5) no. (%)
same,Q-wave MI,"30-day, Safety population",15 (0.6) no. (%)
same,Stent thrombosis,"30-day, Safety population",28 (1.1) no. (%)
same,Mortality/Q-wave MI/IDR,"30-day, Safety population",90 (3.4) no. (%)
same,Mortality/Q-wave MI/Stent thrombosis,"30-day, Safety population",74 (2.8) no. (%)
same,All-cause mortality,"48-hour, ITT",19 (0.7) no. (%)
same,IDR,"48-hour, ITT",26 (1.0) no. (%)
same,MI,"48-hour, ITT",192 (7.2) no. (%)
same,Mortality/MI/IDR,"48-hour, ITT",213 (8.0) no. (%)
same,Q-wave MI,"48-hour, ITT",9 (0.3) no. (%)
same,Stent thrombosis,"48-hour, ITT",16 (0.6) no. (%)
same,Stroke,"48-hour, ITT",6 (0.2) no. (%)
same,Mortality/Q-wave MI/IDR,"48-hour, ITT",44 (1.7) no. (%)
same,Mortality/Q-wave MI/Stent thrombosis,"48-hour, ITT",36 (1.4) no. (%)
same,All-cause mortality,"48-hour, MITT",18 (0.7) no. (%)
same,IDR,"48-hour, MITT",24 (0.9) no. (%)
same,MI,"48-hour, MITT",191 (7.2) no. (%)
same,Mortality/MI/IDR (primary endpoint),"48-hour, MITT",210 (8.0) no. (%)
same,Q-wave MI,"48-hour, MITT",8 (0.3) no. (%)
same,Stent thrombosis,"48-hour, MITT",16 (0.6) no. (%)
same,Stroke,"48-hour, MITT",5 (0.2) no. (%)
same,Mortality/Q-wave MI/IDR,"48-hour, MITT",41 (1.6) no. (%)
same,Mortality/Q-wave MI/Stent thrombosis,"48-hour, MITT",34 (1.3) no. (%)
same,Mortality/Q-wave MI/IDR,"48-hour, Safety population",42 (1.6) no. (%)
same,Mortality/Q-wave MI/Stent thrombosis,"48-hour, Safety population",35 (1.3) no. (%)
same,All-cause mortality,"48-hour, safety population",18 (0.7) no. (%)
same,IDR,"48-hour, safety population",25 (0.9) no. (%)
same,MI,"48-hour, safety population",193 (7.3) no. (%)
same,Mortality/MI/IDR,"48-hour, safety population",212 (8.0) no. (%)
same,Q-wave MI,"48-hour, safety population",9 (0.3) no. (%)
same,Stent thrombosis,"48-hour, safety population",16 (0.6) no. (%)
same,Stroke,"48-hour, safety population",5 (0.2) no. (%)
same,Angiographic complications (site reported): Abrupt vessel closure,ITT,16 (0.6)
same,Angiographic complications (site reported): Acute stent thrombosis,ITT,5 (0.2)
same,Angiographic complications (site reported): Need for urgent CABG,ITT,4 (0.2)
same,Angiographic complications (site reported): New thrombus or suspected thrombus,ITT,15 (0.6)
same,Angiographic complications (site reported): Threatened abrupt closure,ITT,9 (0.3)
same,Angiographic complications (site reported): Unsuccessful procedure,ITT,97 (3.7)
same,Angiographic complications (site reported): Abrupt vessel closure,MITT,16 (0.6)
same,Angiographic complications (site reported): Acute stent thrombosis,MITT,5 (0.2)
same,Angiographic complications (site reported): Need for urgent CABG,MITT,3 (0.1)
same,Angiographic complications (site reported): New thrombus or suspected thrombus,MITT,15 (0.6)
same,Angiographic complications (site reported): Threatened abrupt closure,MITT,9 (0.3)
same,Angiographic complications (site reported): Unsuccessful procedure,MITT,95 (3.6)
same,Angiographic complications (site reported): Abrupt vessel closure,Safety population,16 (0.6)
same,Angiographic complications (site reported): Acute stent thrombosis,Safety population,5 (0.2)
same,Angiographic complications (site reported): Need for urgent CABG,Safety population,3 (0.1)
same,Angiographic complications (site reported): New thrombus or suspected thrombus,Safety population,15 (0.6)
same,Angiographic complications (site reported): Threatened abrupt closure,Safety population,9 (0.3)
same,Angiographic complications (site reported): Unsuccessful procedure,Safety population,95 (3.6)
